Data: patent EP3391747A1, “USE OF PHENOXYPYRIDINYL-SUBSTITUTED (1H-1,2,4-TRIAZOL-1-YL)ALCOHOLS FOR ENHANCING CROP PERFORMANCE” (Bayer AG, priority 2018, dated 2018)

Tests used:
Septoria tritici = Septoria tritici test / in vitro microtest (liquid medium, microtitre plates, optical density at 620 nm); type: cell-based; details: for EC50 (Mean): mean over the 14 strains; for EC50: 5 days of incubation
Method: In an in-vitro microtest, several compounds were tested against different strains of Septoria tritici.
The microtest was performed in liquid medium with 50% malt medium using microtitre plates.
The active compounds are applied as technical active substances dissolved in methanol and 8 concentrations were prepared. The resulting concentration range was 0; 0.0032; 0.016; 0.08; 0.4; 2; 10; and 50 µg a.i. /ml. A mycelium suspension of different strains of Septoria tritici was used for inoculation. After 5 days of incubation in darkness under shaking (10 Hrz) the optical density in each cavity was determined photometrically at 620 nm. […] Table 3: Septoria tritici test /in vitro

winter wheat = experiment: Field trial in winter wheat: impact on yield, greening and canopy coverage under pathogen-free conditions; type: in vivo, winter wheat variety "Dekan"; details: 125 g a.i./ha; for Grain Yield (% of Control) / Grain Yield: sprayed threefold at BBCH 31, 39 and 69 as 100EC formulation; for Grain Yield (% of Control): control = 100EC blank formulation; for Grain Yield: harvest July 2017; for Greening (% of Control): measured visually at BBCH growth stage 65, untreated control plots = 100%; for Canopy Coverage: tractor-mounted RGB camera system, BBCH growth stage 37
Method: A field trial in winter wheat was conducted in the experimental station "Laacherhof" in Germany from autumn 2016 to summer 2017.
Seeds of the winter wheat variety "Dekan" were planted in October 2016. Fertilization, herbicide- and plant growth regulator applications were carried out according to the local agricultural practice. Additionally, a cover spray with the fungicidal composition "Pronto® Plus" was carried out at BBCH growth stage 51 in order to keep the field trial pathogen-free. The trial was conducted with 4 replicates and the replicates 2, 3 and 4 were randomized. The plot size was 8.8 m^2.
The compounds 2-[6-(4-chlorophenoxy)-2-(trifluoromethyl)-3-pyridyl]-1-(1,2,4-triazol-1-yl)propan-2-ol (I.01) and 2-[6-(4-bromophenoxy)-2-(trifluoromethyl)-3-pyridyl]-1-(1,2,4-triazol-1-yl)propan-2-ol (1.02) were sprayed threefold at BBCH growth stages 31, 39 and 69 with an use rate of 125 g a.i./ha (a.i. = active ingredient, i.e. the respective compound of formula (I)). Both compounds were applied as a 100EC formulation (100EC = emulsion concentrate comprising 100 g/L of the respective active ingredient).
The winter wheat was harvested in July 2017.
The greening effect was measured visually at BBCH growth stage 65. The greening of the untreated control plots corresponds to 100% and the plots of the other treatments were directly compared to the control plots (table 1).
The canopy coverage was measured by a tractor-mounted RGB camera system on May 11, 2017 at BBCH growth stage 37 (table 1). Table 1: Impact of different compounds on yield, greening and canopy coverage

[1] = test system: leaf discs of grape plants; experiment: Leaf disc test: chlorophyll content (greening effect) by SPAD-502 chlorophyll meter; details: 1 ppm; after 3 days at room temperature (21°C); 5 replicates
Method: According to this invention the chlorophyll content is measured by means of the commercially available hand-held chlorophyll meter SPAD-502 (Konica Minolta).
In a lab experiment, leaf discs of grape plants were put in petri dishes containing solutions of different compounds. 5 replicates were used for each treatment. Afterwards, the petri dishes were incubated for max. 7 days at room temperature (21°C). After 3 days, the chlorophyll content of the leaf discs was measured by using a commercially available hand-held chlorophyll meter (SPAD-502, Konica Minolta). Table 2: Impact of 2-[6-(4-bromophenoxy)-2-(trifluoromethyl)-3-pyridyl]-1-(1,2,4-triazol-1-yl)propan-2-ol (I.02) on the chlorophyll content (greening effect) in leaf discs

SMILES	EC50 (Mean) (Septoria tritici)	EC50 (Septoria tritici; strain 01/16)	EC50 (Septoria tritici; strain 02/16)	EC50 (Septoria tritici; strain 03/16)	EC50 (Septoria tritici; strain 04/16)	EC50 (Septoria tritici; strain 05/16)	EC50 (Septoria tritici; strain 06/16)	EC50 (Septoria tritici; strain 07/16)	EC50 (Septoria tritici; strain 08/16)	EC50 (Septoria tritici; strain 09/16)	EC50 (Septoria tritici; strain 11/16)	EC50 (Septoria tritici; strain 12/16)	EC50 (Septoria tritici; strain 13/16)	EC50 (Septoria tritici; strain 14/16)	EC50 (Septoria tritici; strain 15/16)	Grain Yield (% of Control) (winter wheat)	Grain Yield (winter wheat)	Greening (% of Control) (winter wheat)	Canopy Coverage (winter wheat)	SPAD Reading [1]
CC(O)(Cn1cncn1)c1ccc(Oc2ccc(Cl)cc2)nc1C(F)(F)F (stereo not shown) [Compound 1.01, 2-[6-(4-chlorophenoxy)-2-(trifluoromethyl)-3-pyridyl]-1-(1,2,4-triazol-1-yl)propan-2-ol]	0,0203 ppm	0,1348 ppm	0,0248 ppm	0,0032 ppm	0,0355 ppm	0,0503 ppm	0,0039 ppm	0,0032 ppm	0,0641 ppm	0,1002 ppm	0,0034 ppm	0,0715 ppm	0,0055 ppm	0,0147 ppm	0,0663 ppm	108 % of Control	74,6 dt/ha	108 % of Control	58%	–
CC(O)(Cn1cncn1)c1ccc(Oc2ccc(Br)cc2)nc1C(F)(F)F (stereo not shown) [Compound 1.02, 2-[6-(4-bromophenoxy)-2-(trifluoromethyl)-3-pyridyl]-1-(1,2,4-triazol-1-yl)propan-2-ol]	0,0133 ppm	0,0187 ppm	0,0108 ppm	0,0043 ppm	0,0433 ppm	0,0223 ppm	0,0033 ppm	0,0032 ppm	0,0629 ppm	0,0416 ppm	0,0038 ppm	0,0806 ppm	0,0169 ppm	0,0080 ppm	0,0059 ppm	112 % of Control	77,8 dt/ha	137 % of Control	58%	32
CC(C)(C)C(O)(CCc1ccc(Cl)cc1)Cn1cncn1 (stereo not shown) [Tebuconazole, reference compound]	7,4138 ppm	8,1102 ppm	14,4303 ppm	13,2784 ppm	50,0000 ppm	8,5712 ppm	10,6222 ppm	5,4355 ppm	4,2639 ppm	27,1082 ppm	0,6823 ppm	2,1260 ppm	28,6583 ppm	3,4790 ppm	2,3577 ppm	–	–	–	–	25
